Test results reported in patent US8741897B2, “Glucocorticoid mimetics, methods of making them, pharmaceutical compositions and uses thereof” (Boehringer Ingelheim Pharmaceuticals Inc., priority 2003, dated 2014).

What was measured:
[1] = molecular target: T1, human glucocorticoid receptor (GR) complex (Homo sapiens, UniProt P04150); assay: Glucocorticoid receptor competitive binding assay (fluorescence polarization, TAMRA-labeled dexamethasone probe); conditions: compounds of Formula (IA)
T1 construct: made in house; host or cells: insect expression system (baculovirus lysate)
T1 sequence (P04150 1-777): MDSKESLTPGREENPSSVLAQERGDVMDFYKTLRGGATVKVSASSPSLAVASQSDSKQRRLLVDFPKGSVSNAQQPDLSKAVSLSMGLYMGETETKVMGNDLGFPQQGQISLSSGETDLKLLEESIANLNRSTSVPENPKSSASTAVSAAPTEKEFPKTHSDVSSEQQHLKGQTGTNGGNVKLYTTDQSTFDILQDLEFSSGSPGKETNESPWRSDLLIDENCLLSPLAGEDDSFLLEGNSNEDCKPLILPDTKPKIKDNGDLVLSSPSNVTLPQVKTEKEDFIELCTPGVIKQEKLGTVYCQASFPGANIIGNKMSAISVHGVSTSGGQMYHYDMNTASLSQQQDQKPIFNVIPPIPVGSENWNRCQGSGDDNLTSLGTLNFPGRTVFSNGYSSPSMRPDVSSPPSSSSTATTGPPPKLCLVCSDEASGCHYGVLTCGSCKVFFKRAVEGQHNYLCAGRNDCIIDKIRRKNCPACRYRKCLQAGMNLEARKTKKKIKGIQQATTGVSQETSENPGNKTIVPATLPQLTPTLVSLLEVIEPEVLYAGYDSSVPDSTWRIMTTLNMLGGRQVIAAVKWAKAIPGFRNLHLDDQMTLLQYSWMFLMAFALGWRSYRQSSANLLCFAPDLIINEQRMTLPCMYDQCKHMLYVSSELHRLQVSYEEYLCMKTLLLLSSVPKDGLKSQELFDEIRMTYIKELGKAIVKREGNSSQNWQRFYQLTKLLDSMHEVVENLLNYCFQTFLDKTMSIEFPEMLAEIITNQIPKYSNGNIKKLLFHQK
How it was run: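 Fluorescence-polarization competition against 15 nM TAMRA-dexamethasone (stock added to the mix) for human GR complex from baculovirus lysate diluted 1:170. Buffer: 10 mM TES, 50 mM KCl, 20 mM Na2MoO4, 1.5 mM EDTA, 0.04% CHAPS, 10% glycerol, 1 mM DTT, pH 7.4. IC50 from 4-parameter logistic fit.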

[2] = test system: glucocorticoid receptor function; assay: one or more of the above assays (GR binding and glucocorticoid receptor cell assays: aromatase, IL-6, TAT, MMTV-Luc, IL-8, ICAM-Luc); type: cell-based; conditions: assay not specified per compound

SMILES	activity in the GR binding assay [1]	activity as agonists of the glucocorticoid receptor function in one or more of the above assays [2]
CN(C)c1ccc(C(C)(C)CC(O)(Cc2ccnc3ccccc23)C(F)(F)F)cc1 (stereo not shown) [4-(4-Dimethylaminophenyl)-1,1,1-trifluoro-4-methyl-2-quinolin-4-ylmethylpentan-2-ol]	potent activity	potent agonists
CC(C)(CC(O)(Cc1cc2ccc(C#N)cc2[nH]1)C(F)(F)F)c1cc(F)ccc1O (stereo not shown) [2-[4-(5-Fluoro-2-hydroxyphenyl)-2-hydroxy-4-methyl-2-trifluoromethylpentyl]-1H-indole-6-carbonitrile]	potent activity	potent agonists
COc1ccc(F)cc1C(C)(C)CC(O)(Cc1cc2cc(C(=O)N3CCC(O)C3)ccc2[nH]1)C(F)(F)F (stereo not shown) [{2-[4-(5-Fluoro-2-methoxyphenyl)-2-hydroxy-4-methyl-2-trifluoromethylpentyl]-1H-indol-5-yl}(3-hydroxypyrrolidin-1-yl)methanone]	potent activity	potent agonists
Cc1cc(C(C)(C)CC(O)(Cc2cc3ccccc3[nH]2)C(F)(F)F)ccc1F (stereo not shown) [1,1,1-Trifluoro-4-(4-fluoro-3-methylphenyl)-2-(1H-indol-2-ylmethyl)-4-methylpentan-2-ol]	potent activity	potent agonists
CC(C)(CC(O)(Cc1cc2ccccc2[nH]1)C(F)(F)F)c1ccc(F)cc1 (stereo not shown) [1,1,1-Trifluoro-4-(4-fluorophenyl)-2-(1H-indol-2-ylmethyl)-4-methylpentan-2-ol]	potent activity	potent agonists
CC(C)(CC(O)(Cc1cc2cnccc2[nH]1)C(F)(F)F)c1cc(Cl)cc2c1OCC2 (stereo not shown) [4-(5-Chloro-2,3-dihydrobenzofuran-7-yl)-1,1,1-trifluoro-4-methyl-2-(1H-pyrrolo[3,2-c]pyridin-2-ylmethyl)pentan-2-ol]	potent activity	potent agonists
CC(C)(CC(O)(Cc1ccnc(Br)c1)C(F)(F)F)c1cc(F)ccc1O (stereo not shown) [2-[3-(2-Bromopyridin-4-ylmethyl)-4,4,4-trifluoro-3-hydroxy-1,1-dimethylbutyl]-4-fluorophenol]	potent activity	potent agonists
Cc1cc2[nH]c(CC(O)(CC(C)(C)c3cc(Cl)cc4c3OCC4)C(F)(F)F)cc2cn1 (stereo not shown) [4-(5-Chloro-2,3-dihydrobenzofuran-7-yl)-1,1,1-trifluoro-4-methyl-2-(6-methyl-1H-pyrrolo[3,2-c]pyridin-2-ylmethyl)pentan-2-ol]	potent activity	potent agonists
COc1ccc(F)cc1C(C)(C)CC(O)(Cc1cc(Cl)nc(Cl)c1C#N)C(F)(F)F (stereo not shown) [2,6-Dichloro-4-[4-(5-fluoro-2-methoxyphenyl)-2-hydroxy-4-methyl-2-trifluoromethylpentyl]nicotinonitrile]	potent activity	potent agonists
CSc1ccc2[nH]c(CC(O)(CC(C)(C)c3cc(F)cc4c3OCC4)C(F)(F)F)cc2c1 (stereo not shown) [1,1,1-Trifluoro-4-(5-fluoro-2,3-dihydrobenzofuran-7-yl)-4-methyl-2-(5-methylsulfanyl-1H-indol-2-ylmethyl)pentan-2-ol]	potent activity	potent agonists
COc1ccc(F)cc1C(C)(C)CC(O)(Cc1cc2ccnc(F)c2[nH]1)C(F)(F)F (stereo not shown) [1,1,1-Trifluoro-4-(5-fluoro-2-methoxyphenyl)-2-(7-fluoro-1H-pyrrolo[2,3-c]pyridin-2-ylmethyl)-4-methylpentan-2-ol]	potent activity	potent agonists
COc1ccc(F)cc1C(C)(C)CC(O)(Cc1cc2cc(C(=O)NCC#N)ccc2[nH]1)C(F)(F)F (stereo not shown) [2-[4-(5-Fluoro-2-methoxyphenyl)-2-hydroxy-4-methyl-2-trifluoromethylpentyl]-1H-indole-5-carboxylic acid cyanomethylamide]	potent activity	potent agonists
CC(C)(CC(O)(Cc1cc2ccncc2[nH]1)C(F)(F)F)c1cc(Cl)cc2c1OCC2 (stereo not shown) [4-(5-Chloro-2,3-dihydrobenzofuran-7-yl)-1,1,1-trifluoro-4-methyl-2-(1H-pyrrolo[2,3-c]pyridin-2-ylmethyl)pentan-2-ol]	potent activity	potent agonists
COc1ccc(S(C)(=O)=O)cc1C(C)(C)CC(O)(Cc1[nH]c2ccccc2c1C#N)C(F)(F)F (stereo not shown) [2-[2-Hydroxy-4-(5-methanesulfonyl-2-methoxyphenyl)-4-methyl-2-trifluoromethylpentyl]-1H-indole-3-carbonitrile]	potent activity	potent agonists
CC(C)(CC(O)(Cc1cc2nc(C#N)ccc2[nH]1)C(F)(F)F)c1cc(Cl)cc2c1OCC2 (stereo not shown) [2-[4-(5-Chloro-2,3-dihydrobenzofuran-7-yl)-2-hydroxy-4-methyl-2-trifluoromethylpentyl]-1H-pyrrolo[3,2-b]pyridine-5-carbonitrile]	potent activity	potent agonists
CC(C)(CC(O)(Cc1cc2ccccc2[nH]1)C(F)(F)F)c1cccc(F)c1 (stereo not shown) [1,1,1-Trifluoro-4-(3-fluorophenyl)-2-(1H-indol-2-ylmethyl)-4-methylpentan-2-ol]	potent activity	potent agonists
CN(C)Cc1cccc(C(C)(C)CC(O)(Cc2cc3cc(C#N)ccc3[nH]2)C(F)(F)F)c1 (stereo not shown) [2-[4-(3-Dimethylaminomethylphenyl)-2-hydroxy-4-methyl-2-trifluoromethylpentyl]-1H-indole-5-carbonitrile]	potent activity	potent agonists
CC(C)(CC(O)(Cc1cc2ccccc2[nH]1)C(F)(F)F)c1cc(F)ccc1OC(F)F (stereo not shown) [4-(2-Difluoromethoxy-5-fluorophenyl)-1,1,1-trifluoro-2-(1H-indol-2-ylmethyl)-4-methylpentan-2-ol]	potent activity	potent agonists
COc1ccc(F)cc1C(C)(C)CC(O)(Cc1cc2cc(C(F)(F)F)ncc2[nH]1)C(F)(F)F (stereo not shown) [1,1,1-Trifluoro-4-(5-fluoro-2-methoxyphenyl)-4-methyl-2-(5-trifluoromethyl-1H-pyrrolo[2,3-c]pyridin-2-ylmethyl)pentan-2-ol]	potent activity	potent agonists
COc1ccc(OC)c(C(C)(C)CC(O)(Cc2cc3ccncc3[nH]2)C(F)(F)F)c1 (stereo not shown) [4-(2,5-Dimethoxyphenyl)-1,1,1-trifluoro-4-methyl-2-(1H-pyrrolo[2,3-c]pyridin-2-ylmethyl)pentan-2-ol]	potent activity	potent agonists
Cc1cc(C#N)cc2[nH]c(CC(O)(CC(C)(C)c3cc(Br)cc4c3OCC4)C(F)(F)F)cc12 (stereo not shown) [2-[4-(5-Bromo-2,3-dihydrobenzofuran-7-yl)-2-hydroxy-4-methyl-2-trifluoromethylpentyl]-4-methyl-1H-indole-6-carbonitrile]	potent activity	potent agonists
Cc1ccc(F)cc1C(C)(C)CC(O)(Cc1cc2cnccc2s1)C(F)(F)F (stereo not shown) [1,1,1-Trifluoro-4-(5-fluoro-2-methylphenyl)-4-methyl-2-thieno[3,2-c]pyridin-2-ylmethylpentan-2-ol]	potent activity	potent agonists
Cc1cc(C#N)cc2[nH]c(CC(O)(CC(C)(C)c3cccc4c3OCO4)C(F)(F)F)cc12 (stereo not shown) [2-(4-Benzo[1,3]dioxol-4-yl-2-hydroxy-4-methyl-2-trifluoromethylpentyl)-4-methyl-1H-indole-6-carbonitrile]	potent activity	potent agonists
